{"source": "ChEMBL document CHEMBL5465560", "about": "“Selectivity Literature for EUbOPEN Chemogenomic Library” (2024)", "key": {"[1]": {"target": "T1, 3-phosphoinositide-dependent protein kinase 1 (Homo sapiens) (UniProt O15530)", "T1 sequence (whole entry)": "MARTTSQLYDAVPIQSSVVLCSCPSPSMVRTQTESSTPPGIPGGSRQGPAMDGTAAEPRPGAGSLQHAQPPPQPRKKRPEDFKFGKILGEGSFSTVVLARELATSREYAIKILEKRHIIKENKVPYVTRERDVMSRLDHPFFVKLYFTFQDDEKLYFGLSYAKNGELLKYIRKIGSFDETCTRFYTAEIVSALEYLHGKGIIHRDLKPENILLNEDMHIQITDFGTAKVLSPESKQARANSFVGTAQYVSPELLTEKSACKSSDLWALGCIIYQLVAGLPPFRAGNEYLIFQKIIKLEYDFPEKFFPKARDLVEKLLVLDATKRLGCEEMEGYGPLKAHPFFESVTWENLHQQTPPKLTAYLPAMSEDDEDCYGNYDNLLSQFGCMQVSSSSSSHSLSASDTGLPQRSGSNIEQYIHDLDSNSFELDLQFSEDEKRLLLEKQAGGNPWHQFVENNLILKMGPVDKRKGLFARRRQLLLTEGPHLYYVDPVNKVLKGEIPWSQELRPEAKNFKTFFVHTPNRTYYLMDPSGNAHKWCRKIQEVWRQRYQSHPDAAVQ", "conditions": "at 10 µM"}, "[2]": {"target": "5'-AMP-activated protein kinase catalytic subunit alpha-1 (Homo sapiens, UniProt Q13131)", "sequence (Q13131 whole entry, looked up)": "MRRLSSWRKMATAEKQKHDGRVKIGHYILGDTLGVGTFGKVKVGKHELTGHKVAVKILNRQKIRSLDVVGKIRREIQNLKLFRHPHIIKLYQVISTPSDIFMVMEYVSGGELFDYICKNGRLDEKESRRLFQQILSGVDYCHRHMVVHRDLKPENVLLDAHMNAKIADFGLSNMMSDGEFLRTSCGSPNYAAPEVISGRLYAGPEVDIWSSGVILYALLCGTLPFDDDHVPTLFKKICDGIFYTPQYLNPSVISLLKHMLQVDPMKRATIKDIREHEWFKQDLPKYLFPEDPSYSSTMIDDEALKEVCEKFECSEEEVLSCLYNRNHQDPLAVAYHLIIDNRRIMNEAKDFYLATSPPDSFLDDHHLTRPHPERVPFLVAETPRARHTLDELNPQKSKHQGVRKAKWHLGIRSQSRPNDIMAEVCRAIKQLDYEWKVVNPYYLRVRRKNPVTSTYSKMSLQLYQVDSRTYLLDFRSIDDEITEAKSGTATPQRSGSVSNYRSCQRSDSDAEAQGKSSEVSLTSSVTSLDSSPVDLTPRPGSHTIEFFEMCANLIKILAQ", "test": "Selectivity interaction (KinomeScan (DiscoverX)) EUB0000092b PRKAA1", "conditions": "at 10 µM"}, "[3]": {"target": "Serine/threonine-protein kinase PAK 2 (Homo sapiens) (UniProt Q13177)", "sequence (Q13177 whole entry)": "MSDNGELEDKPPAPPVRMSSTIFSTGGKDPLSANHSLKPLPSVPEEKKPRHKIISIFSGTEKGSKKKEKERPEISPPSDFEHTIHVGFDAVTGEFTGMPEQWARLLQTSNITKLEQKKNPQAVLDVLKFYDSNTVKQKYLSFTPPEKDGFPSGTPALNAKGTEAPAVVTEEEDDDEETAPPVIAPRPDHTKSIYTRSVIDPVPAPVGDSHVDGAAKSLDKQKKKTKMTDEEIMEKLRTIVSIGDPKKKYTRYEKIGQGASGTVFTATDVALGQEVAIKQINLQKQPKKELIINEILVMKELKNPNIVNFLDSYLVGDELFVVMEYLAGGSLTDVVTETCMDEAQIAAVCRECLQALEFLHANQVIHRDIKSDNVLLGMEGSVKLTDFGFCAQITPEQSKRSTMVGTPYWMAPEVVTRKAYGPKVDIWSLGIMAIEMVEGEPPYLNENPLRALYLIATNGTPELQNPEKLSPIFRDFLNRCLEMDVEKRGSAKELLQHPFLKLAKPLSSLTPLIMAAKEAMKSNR", "test": "Selectivity interaction (KinomeScan (DiscoverX)) EUB0000655a PAK2", "conditions": "at 10 µM"}, "[4]": {"target": "Serine/threonine-protein kinase Nek6 (Homo sapiens) (UniProt Q9HC98)", "sequence (Q9HC98 whole entry)": "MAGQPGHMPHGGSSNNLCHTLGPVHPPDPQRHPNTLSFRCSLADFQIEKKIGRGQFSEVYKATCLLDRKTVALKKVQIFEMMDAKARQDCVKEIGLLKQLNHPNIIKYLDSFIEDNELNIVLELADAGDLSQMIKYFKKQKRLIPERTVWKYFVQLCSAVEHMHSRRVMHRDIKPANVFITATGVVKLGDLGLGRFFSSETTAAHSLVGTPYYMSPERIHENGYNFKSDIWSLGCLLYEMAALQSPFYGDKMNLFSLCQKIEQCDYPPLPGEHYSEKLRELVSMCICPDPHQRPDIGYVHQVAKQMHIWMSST", "test": "Selectivity interaction (Kinase panel (KiNativ target engagement assay in Jurkat cells)) EUB0001635a NEK6", "type": "cell-based", "conditions": "Selectivity number of off-targets 0.0, Selectivity number of targets 233.0, Source Knowledge https://www.sciencedirect.com/science/article/pii/S2451945619300674?via%3Dihub, at 1 µM"}, "[5]": {"target": "Calcium/calmodulin-dependent protein kinase type 1 (Homo sapiens) (UniProt Q14012)", "sequence (Q14012 whole entry, looked up)": "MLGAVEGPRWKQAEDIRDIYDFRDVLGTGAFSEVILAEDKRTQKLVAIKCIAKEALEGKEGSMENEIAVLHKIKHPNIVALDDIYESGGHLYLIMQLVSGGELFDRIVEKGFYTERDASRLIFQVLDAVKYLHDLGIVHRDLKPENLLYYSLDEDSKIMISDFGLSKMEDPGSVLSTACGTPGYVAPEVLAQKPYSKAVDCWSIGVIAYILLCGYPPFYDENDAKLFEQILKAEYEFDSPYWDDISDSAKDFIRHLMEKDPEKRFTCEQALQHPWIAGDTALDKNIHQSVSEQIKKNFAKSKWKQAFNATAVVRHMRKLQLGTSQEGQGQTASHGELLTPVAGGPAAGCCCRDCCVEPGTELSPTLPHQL", "conditions": "at 10 µM"}, "[6]": {"target": "Mitogen-activated protein kinase 4 (Homo sapiens) (UniProt P31152)", "sequence (P31152 whole entry)": "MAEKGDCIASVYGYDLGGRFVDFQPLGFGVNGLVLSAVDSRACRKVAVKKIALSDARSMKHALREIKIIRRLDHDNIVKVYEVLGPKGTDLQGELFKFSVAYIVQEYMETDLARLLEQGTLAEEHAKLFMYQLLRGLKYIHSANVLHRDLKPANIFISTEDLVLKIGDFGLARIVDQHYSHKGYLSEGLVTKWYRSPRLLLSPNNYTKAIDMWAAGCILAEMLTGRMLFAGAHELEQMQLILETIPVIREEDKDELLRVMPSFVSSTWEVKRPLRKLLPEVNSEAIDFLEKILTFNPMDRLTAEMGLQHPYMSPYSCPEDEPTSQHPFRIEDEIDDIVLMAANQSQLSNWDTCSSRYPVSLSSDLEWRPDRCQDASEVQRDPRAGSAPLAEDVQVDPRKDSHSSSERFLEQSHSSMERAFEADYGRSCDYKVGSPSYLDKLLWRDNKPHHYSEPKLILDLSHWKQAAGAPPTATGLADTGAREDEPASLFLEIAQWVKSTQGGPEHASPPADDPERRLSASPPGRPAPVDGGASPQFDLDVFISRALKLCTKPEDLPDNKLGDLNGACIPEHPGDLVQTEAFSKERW", "conditions": "at 10 µM"}, "[7]": {"target": "Epidermal growth factor receptor (Homo sapiens, UniProt P00533)", "sequence (P00533 whole entry)": "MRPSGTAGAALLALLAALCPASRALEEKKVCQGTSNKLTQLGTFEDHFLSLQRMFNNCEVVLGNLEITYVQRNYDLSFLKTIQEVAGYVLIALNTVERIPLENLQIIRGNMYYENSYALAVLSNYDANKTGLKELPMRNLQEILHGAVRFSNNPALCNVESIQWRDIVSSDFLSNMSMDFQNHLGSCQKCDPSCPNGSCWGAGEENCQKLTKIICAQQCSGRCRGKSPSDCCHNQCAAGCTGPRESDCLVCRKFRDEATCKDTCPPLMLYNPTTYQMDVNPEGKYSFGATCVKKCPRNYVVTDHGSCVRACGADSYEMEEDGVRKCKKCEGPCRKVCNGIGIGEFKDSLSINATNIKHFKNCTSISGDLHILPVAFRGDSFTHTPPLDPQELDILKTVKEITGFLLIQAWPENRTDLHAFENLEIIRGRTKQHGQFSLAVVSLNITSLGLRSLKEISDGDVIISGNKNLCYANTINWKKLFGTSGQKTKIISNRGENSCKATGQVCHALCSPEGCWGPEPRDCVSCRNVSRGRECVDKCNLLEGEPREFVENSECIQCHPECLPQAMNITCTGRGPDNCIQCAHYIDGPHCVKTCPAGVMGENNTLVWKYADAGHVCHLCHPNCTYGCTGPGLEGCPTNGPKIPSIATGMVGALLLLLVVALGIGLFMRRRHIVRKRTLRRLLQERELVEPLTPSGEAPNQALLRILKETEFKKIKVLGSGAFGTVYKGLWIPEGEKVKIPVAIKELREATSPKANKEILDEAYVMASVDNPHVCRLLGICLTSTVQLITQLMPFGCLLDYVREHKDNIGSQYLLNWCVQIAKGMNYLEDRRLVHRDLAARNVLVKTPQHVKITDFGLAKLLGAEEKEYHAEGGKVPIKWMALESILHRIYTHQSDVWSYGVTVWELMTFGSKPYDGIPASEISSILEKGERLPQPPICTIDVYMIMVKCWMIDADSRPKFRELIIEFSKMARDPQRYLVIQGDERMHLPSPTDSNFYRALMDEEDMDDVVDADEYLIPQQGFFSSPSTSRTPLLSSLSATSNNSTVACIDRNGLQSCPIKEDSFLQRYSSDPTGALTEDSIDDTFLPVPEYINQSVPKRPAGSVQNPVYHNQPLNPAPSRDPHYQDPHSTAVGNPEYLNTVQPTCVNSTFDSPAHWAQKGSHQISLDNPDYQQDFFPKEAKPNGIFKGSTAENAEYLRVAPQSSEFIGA", "test": "Selectivity interaction (Kinase panel (Invitrogen)) EUB0000639a EGFR", "conditions": "at 200 nM"}, "[8]": {"target": "T2, Activin receptor type-1B (Homo sapiens) (UniProt P36896)", "T2 sequence (whole entry)": "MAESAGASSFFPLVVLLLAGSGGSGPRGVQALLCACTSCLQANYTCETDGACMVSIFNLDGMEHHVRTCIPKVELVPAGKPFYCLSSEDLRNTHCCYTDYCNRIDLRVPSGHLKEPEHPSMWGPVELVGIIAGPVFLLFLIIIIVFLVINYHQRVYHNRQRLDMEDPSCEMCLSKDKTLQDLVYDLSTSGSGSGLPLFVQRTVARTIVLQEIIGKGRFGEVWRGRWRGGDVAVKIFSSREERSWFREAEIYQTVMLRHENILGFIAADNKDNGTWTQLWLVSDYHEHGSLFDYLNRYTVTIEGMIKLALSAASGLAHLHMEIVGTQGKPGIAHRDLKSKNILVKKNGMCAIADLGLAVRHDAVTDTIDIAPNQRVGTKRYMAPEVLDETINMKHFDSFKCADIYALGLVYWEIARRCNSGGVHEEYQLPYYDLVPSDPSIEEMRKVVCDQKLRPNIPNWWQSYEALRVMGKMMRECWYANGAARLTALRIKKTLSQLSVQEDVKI", "test": "Selectivity interaction (SelectScreen profiling (Invitrogen)) EUB0000607a ACVR1B", "conditions": "at 2 µM"}, "[9]": {"target": "T3, Mitogen-activated protein kinase 13 (Homo sapiens) (UniProt O15264)", "T3 sequence (whole entry)": "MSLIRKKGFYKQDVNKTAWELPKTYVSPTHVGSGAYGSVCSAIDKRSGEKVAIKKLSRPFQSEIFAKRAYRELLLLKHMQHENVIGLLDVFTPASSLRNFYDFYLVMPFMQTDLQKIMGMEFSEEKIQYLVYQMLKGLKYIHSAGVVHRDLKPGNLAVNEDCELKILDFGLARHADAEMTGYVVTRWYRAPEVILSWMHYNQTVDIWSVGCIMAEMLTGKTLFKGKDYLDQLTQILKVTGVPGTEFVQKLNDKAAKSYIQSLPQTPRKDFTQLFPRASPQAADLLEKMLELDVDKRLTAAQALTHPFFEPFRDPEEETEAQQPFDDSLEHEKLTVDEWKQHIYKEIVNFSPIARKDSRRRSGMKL", "test": "Selectivity interaction (KinomeScan (DiscoverX)) EUB0000595a MAPK13", "conditions": "at 10 µM"}, "[10]": {"target": "T4, Discoidin domain-containing receptor 2 (Homo sapiens) (UniProt Q16832)", "T4 sequence (whole entry)": "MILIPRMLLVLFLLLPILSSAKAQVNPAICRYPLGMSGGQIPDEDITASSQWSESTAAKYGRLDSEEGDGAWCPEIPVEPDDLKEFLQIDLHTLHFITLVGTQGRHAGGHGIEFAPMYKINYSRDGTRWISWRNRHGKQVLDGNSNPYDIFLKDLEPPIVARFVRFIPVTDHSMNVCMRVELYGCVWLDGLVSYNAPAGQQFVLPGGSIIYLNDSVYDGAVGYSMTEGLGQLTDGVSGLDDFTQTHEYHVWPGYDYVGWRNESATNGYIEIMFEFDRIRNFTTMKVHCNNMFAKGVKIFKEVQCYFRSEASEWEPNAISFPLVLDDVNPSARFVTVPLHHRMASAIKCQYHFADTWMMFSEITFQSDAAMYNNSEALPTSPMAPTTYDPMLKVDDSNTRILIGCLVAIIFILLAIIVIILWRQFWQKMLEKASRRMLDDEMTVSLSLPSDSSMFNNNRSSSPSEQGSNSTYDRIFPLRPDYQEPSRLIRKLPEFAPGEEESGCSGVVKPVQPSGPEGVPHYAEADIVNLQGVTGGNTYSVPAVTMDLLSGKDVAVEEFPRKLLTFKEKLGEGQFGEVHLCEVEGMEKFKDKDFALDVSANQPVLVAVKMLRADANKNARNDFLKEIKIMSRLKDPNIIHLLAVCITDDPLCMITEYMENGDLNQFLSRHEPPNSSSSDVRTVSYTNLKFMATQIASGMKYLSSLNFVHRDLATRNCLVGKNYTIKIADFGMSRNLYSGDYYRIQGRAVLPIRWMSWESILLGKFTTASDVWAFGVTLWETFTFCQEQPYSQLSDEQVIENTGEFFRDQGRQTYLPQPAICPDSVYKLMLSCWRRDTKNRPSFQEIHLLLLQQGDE", "test": "Selectivity interaction (KinomeScan (DiscoverX)) EUB0000045b DDR2"}, "[11]": {"target": "Serine/threonine-protein kinase 38-like (Homo sapiens) (UniProt Q9Y2H1)", "sequence (Q9Y2H1 2-464 limits assumed)": "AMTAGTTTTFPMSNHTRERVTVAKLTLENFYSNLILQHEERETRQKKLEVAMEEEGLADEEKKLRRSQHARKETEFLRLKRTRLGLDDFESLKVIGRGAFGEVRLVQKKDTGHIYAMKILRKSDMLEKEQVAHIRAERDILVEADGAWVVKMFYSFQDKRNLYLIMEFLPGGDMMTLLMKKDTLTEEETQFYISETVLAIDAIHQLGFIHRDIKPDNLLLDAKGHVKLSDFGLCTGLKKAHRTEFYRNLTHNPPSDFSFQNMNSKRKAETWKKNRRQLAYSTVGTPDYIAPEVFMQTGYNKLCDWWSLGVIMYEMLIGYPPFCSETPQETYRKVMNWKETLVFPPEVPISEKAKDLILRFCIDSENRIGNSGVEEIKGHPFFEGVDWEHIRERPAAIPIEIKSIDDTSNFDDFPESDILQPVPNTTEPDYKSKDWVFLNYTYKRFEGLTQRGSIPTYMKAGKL", "test": "Selectivity interaction (ActivX KiNativ screen (ex vivo kinase selectivity in human PBMCs)) EUB0001619a STK38L", "type": "cell-based", "conditions": "PBMC, at 1 µM"}}}
{"molecule": "CCN(CC)CCCCNc1ncc2cc(-c3cc(OC)cc(OC)c3)c(NC(=O)NC(C)(C)C)nc2n1", "values": [{"measurement": "% of control", "setting": "[1]", "value": 100, "unit": "%"}]}
{"molecule": "CCC(=O)N1CCN(c2ccc(-n3c(=O)ccc4cnc5ccc(-c6cnc7ccccc7c6)cc5c43)cc2C(F)(F)F)CC1", "values": [{"measurement": "% of control", "setting": "[2]", "value": 91, "unit": "%"}]}
{"molecule": "CN(C)CCOc1ccc(-c2nc(-c3ccncc3)c(-c3ccc4c(c3)CC/C4=N\\O)[nH]2)cc1", "values": [{"measurement": "% of control", "setting": "[3]", "value": 85, "unit": "%"}]}
{"molecule": "C=CC(=O)Nc1ccc(C(=O)Nc2[nH]nc3c2CN(C(=O)N[C@H](CN(C)C)c2ccccc2)C3(C)C)cc1", "values": [{"measurement": "% of engagement", "setting": "[4]", "value": 2.3, "unit": "%"}]}
{"molecule": "Cc1cc([C@@H](C)Nc2ccccc2C(=O)O)c2nc(N3CCOCC3)cc(=O)n2c1", "note": "[AZD-6482]", "values": [{"measurement": "% of control", "setting": "[5]", "value": 100, "unit": "%"}, {"measurement": "% of control", "setting": "[6]", "value": 98, "unit": "%"}]}
{"molecule": "CC[C@@H]1[C@H](F)C(=O)N[C@@H]1COc1nccc2cc(C(N)=O)c(OC)cc12", "note": "[ZIMLOVISERTIB]", "values": [{"measurement": "% of inhibition", "setting": "[7]", "value": 17, "unit": "%"}]}
{"molecule": "CNC(=O)Nc1ccc(-c2nc(N3CC4CCC(C3)O4)c3cnn(C4CCC5(CC4)OCCO5)c3n2)cc1", "values": [{"measurement": "% of inhibition", "setting": "[8]", "value": 3, "unit": "%"}]}
{"molecule": "COCC(=O)NC/C=C/c1ccc2ncnc(Nc3ccc(Oc4ccc(C)nc4)c(C)c3)c2c1", "note": "[CP-724714]", "values": [{"measurement": "% of control", "setting": "[9]", "value": 100, "unit": "%"}]}
{"molecule": "C=CC(=O)Nc1cc(-n2c(=O)ccc3cnc4ccc(-c5ccc(NS(C)(=O)=O)cc5)cc4c32)ccc1C", "values": [{"measurement": "% of control", "setting": "[10]; at 1 µM", "value": 100, "unit": "%"}, {"measurement": "% of control", "setting": "[10]; at 10 µM", "value": 100, "unit": "%"}]}
{"molecule": "N#Cc1cccc(-c2c[nH]c3ncnc(N4CCOCC4)c23)c1", "values": [{"measurement": "% of inhibition", "setting": "[11]", "value": 20, "unit": "%"}]}
